Assay results published in PubChem BioAssay (NCI).
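Each compound was tested at five concentrations against cells in 96-well plates for 48 hours. GI50 marks 50% less growth. TGI is the concentration that stops growth completely.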

Experiments:
Test in all cases: NCI tumour cell line growth inhibition, 48 h
SF-295 CNS = tested on: SF-295 CNS
NCI-H23 lung = tested on: NCI-H23 lung
MOLT-4 leukemia = tested on: MOLT-4 leukemia
DU-145 prostate = tested on: DU-145 prostate
HOP-62 NSCLC = tested on: HOP-62 NSCLC
SNB-75 CNS = tested on: SNB-75 CNS
M14 melanoma = tested on: M14 melanoma
SR leukemia = tested on: SR leukemia
SK-OV-3 ovarian = tested on: SK-OV-3 ovarian
OVCAR-4 ovarian = tested on: OVCAR-4 ovarian
UACC-62 melanoma = tested on: UACC-62 melanoma
NCI/ADR-RES ovarian = tested on: NCI/ADR-RES ovarian
LOX IMVI melanoma = tested on: LOX IMVI melanoma
K-562 leukemia = tested on: K-562 leukemia
ACHN renal = tested on: ACHN renal
SK-MEL-28 melanoma = tested on: SK-MEL-28 melanoma
MALME-3M melanoma = tested on: MALME-3M melanoma
NCI-H226 lung = tested on: NCI-H226 lung
COLO 205 colon = tested on: COLO 205 colon
CCRF-CEM leukemia = tested on: CCRF-CEM leukemia
SNB-19 CNS = tested on: SNB-19 CNS
SN12C renal = tested on: SN12C renal
RXF 393 renal = tested on: RXF 393 renal
HCC-2998 colon = tested on: HCC-2998 colon
PC-3 prostate = tested on: PC-3 prostate
SK-MEL-5 melanoma = tested on: SK-MEL-5 melanoma
A549 NSCLC = tested on: A549 NSCLC
OVCAR-8 ovarian = tested on: OVCAR-8 ovarian
BT-549 breast = tested on: BT-549 breast
OVCAR-5 ovarian = tested on: OVCAR-5 ovarian
UO-31 renal = tested on: UO-31 renal
T-47D breast = tested on: T-47D breast
UACC-257 melanoma = tested on: UACC-257 melanoma
NCI-H522 lung = tested on: NCI-H522 lung
MDA-MB-231 breast = tested on: MDA-MB-231 breast
OVCAR-3 ovarian = tested on: OVCAR-3 ovarian
HCT-15 colon = tested on: HCT-15 colon
IGROV1 ovarian = tested on: IGROV1 ovarian
HL-60(TB) leukemia = tested on: HL-60(TB) leukemia
U251 CNS = tested on: U251 CNS
SW-620 colon = tested on: SW-620 colon
NCI-H460 lung = tested on: NCI-H460 lung
EKVX NSCLC = tested on: EKVX NSCLC
CAKI-1 renal = tested on: CAKI-1 renal
RPMI-8226 leukemia = tested on: RPMI-8226 leukemia
MCF7 breast = tested on: MCF7 breast
HS 578T breast = tested on: HS 578T breast
SF-268 CNS = tested on: SF-268 CNS
786-0 renal = tested on: 786-0 renal
SK-MEL-2 melanoma = tested on: SK-MEL-2 melanoma
TK-10 renal = tested on: TK-10 renal
KM12 colon = tested on: KM12 colon
HT29 colon = tested on: HT29 colon
MDA-MB-435 = tested on: MDA-MB-435
HCT-116 colon = tested on: HCT-116 colon
SF-539 CNS = tested on: SF-539 CNS
A498 renal = tested on: A498 renal
HOP-92 NSCLC = tested on: HOP-92 NSCLC

CN[C@@H](C)C(=O)N[C@H]1CCS[C@H]2CC(C)(C)[C@@H](C(=O)N[C@H]3c4ccccc4C[C@H]3OCC#CC#CCO[C@@H]3Cc4ccccc4[C@@H]3NC(=O)[C@H]3N4C(=O)[C@@H](NC(=O)[C@H](C)NC)CCS[C@H]4CC3(C)C)N2C1=O
GI50 (SF-295 CNS): > 50 µM | TGI (SF-295 CNS): > 50 µM | GI50 (NCI-H23 lung): > 32 µM | TGI (NCI-H23 lung): > 50 µM | GI50 (MOLT-4 leukemia): 9.86 µM | TGI (MOLT-4 leukemia): 22.4 µM | GI50 (DU-145 prostate): 20.6 µM | TGI (DU-145 prostate): > 50 µM | GI50 (HOP-62 NSCLC): 3.72 µM | TGI (HOP-62 NSCLC): > 50 µM | GI50 (SNB-75 CNS): 1990 nM | TGI (SNB-75 CNS): 21.4 µM | GI50 (M14 melanoma): > 50 µM | TGI (M14 melanoma): > 50 µM | GI50 (SR leukemia): 26.4 nM | TGI (SR leukemia): > 22.1 µM | GI50 (SK-OV-3 ovarian): < 5 nM | TGI (SK-OV-3 ovarian): < 5 nM | GI50 (OVCAR-4 ovarian): 14.6 nM | TGI (OVCAR-4 ovarian): 203 nM | GI50 (UACC-62 melanoma): > 50 µM | TGI (UACC-62 melanoma): > 50 µM | GI50 (NCI/ADR-RES ovarian): > 50 µM | TGI (NCI/ADR-RES ovarian): > 50 µM | GI50 (LOX IMVI melanoma): 13.8 µM | TGI (LOX IMVI melanoma): > 50 µM | GI50 (K-562 leukemia): 12.9 µM | TGI (K-562 leukemia): > 33.4 µM | GI50 (ACHN renal): > 50 µM | TGI (ACHN renal): > 50 µM | GI50 (SK-MEL-28 melanoma): > 46.6 µM | TGI (SK-MEL-28 melanoma): > 50 µM | GI50 (MALME-3M melanoma): 9.51 nM | TGI (MALME-3M melanoma): 115 nM | GI50 (NCI-H226 lung): > 50 µM | TGI (NCI-H226 lung): > 50 µM | GI50 (COLO 205 colon): 25.2 µM | TGI (COLO 205 colon): > 50 µM | GI50 (CCRF-CEM leukemia): 96.6 nM | TGI (CCRF-CEM leukemia): 12.3 µM | GI50 (SNB-19 CNS): > 50 µM | TGI (SNB-19 CNS): > 50 µM | GI50 (SN12C renal): > 46.9 µM | TGI (SN12C renal): > 50 µM | GI50 (RXF 393 renal): 423 nM | TGI (RXF 393 renal): 5.24 µM | GI50 (HCC-2998 colon): 19.5 µM | TGI (HCC-2998 colon): > 50 µM | GI50 (PC-3 prostate): > 28.4 µM | TGI (PC-3 prostate): > 50 µM | GI50 (SK-MEL-5 melanoma): 4.75 µM | TGI (SK-MEL-5 melanoma): > 16.8 µM | GI50 (A549 NSCLC): > 50 µM | TGI (A549 NSCLC): > 50 µM | GI50 (OVCAR-8 ovarian): 35.9 µM | TGI (OVCAR-8 ovarian): > 50 µM | GI50 (BT-549 breast): 7.62 nM | TGI (BT-549 breast): 6.38 µM | GI50 (OVCAR-5 ovarian): > 50 µM | TGI (OVCAR-5 ovarian): > 50 µM | GI50 (UO-31 renal): > 50 µM | TGI (UO-31 renal): > 50 µM | GI50 (T-47D breast): 29.9 µM | TGI (T-47D breast): > 50 µM | GI50 (UACC-257 melanoma): > 50 µM | TGI (UACC-257 melanoma): > 50 µM | GI50 (NCI-H522 lung): 7.38 µM | TGI (NCI-H522 lung): 32 µM | GI50 (MDA-MB-231 breast): < 5 nM | TGI (MDA-MB-231 breast): 23.9 nM | GI50 (OVCAR-3 ovarian): 12 µM | TGI (OVCAR-3 ovarian): > 43.9 µM | GI50 (HCT-15 colon): > 50 µM | TGI (HCT-15 colon): > 50 µM | GI50 (IGROV1 ovarian): 32.1 µM | TGI (IGROV1 ovarian): > 50 µM | GI50 (HL-60(TB) leukemia): 75.9 nM | TGI (HL-60(TB) leukemia): 2330 nM | GI50 (U251 CNS): > 50 µM | TGI (U251 CNS): > 50 µM | GI50 (SW-620 colon): > 50 µM | TGI (SW-620 colon): > 50 µM | GI50 (NCI-H460 lung): 24.6 µM | TGI (NCI-H460 lung): > 50 µM | GI50 (EKVX NSCLC): > 38.9 µM | TGI (EKVX NSCLC): > 50 µM | GI50 (CAKI-1 renal): > 50 µM | TGI (CAKI-1 renal): > 50 µM | GI50 (RPMI-8226 leukemia): 2250 nM | TGI (RPMI-8226 leukemia): > 36 µM | GI50 (MCF7 breast): 5.87 µM | TGI (MCF7 breast): 17.8 µM | GI50 (HS 578T breast): 15.5 µM | TGI (HS 578T breast): > 50 µM | GI50 (SF-268 CNS): 41.9 µM | TGI (SF-268 CNS): > 50 µM | GI50 (786-0 renal): > 50 µM | TGI (786-0 renal): > 50 µM | GI50 (SK-MEL-2 melanoma): 174 nM | TGI (SK-MEL-2 melanoma): 13.9 µM | GI50 (TK-10 renal): > 50 µM | TGI (TK-10 renal): > 50 µM | GI50 (KM12 colon): 30.5 µM | TGI (KM12 colon): > 50 µM | GI50 (HT29 colon): 20.2 µM | TGI (HT29 colon): > 50 µM | GI50 (MDA-MB-435): > 23 µM | TGI (MDA-MB-435): > 50 µM | GI50 (HCT-116 colon): > 28.8 µM | TGI (HCT-116 colon): > 50 µM | GI50 (SF-539 CNS): 11.8 nM | TGI (SF-539 CNS): 2400 nM | GI50 (A498 renal): > 50 µM | TGI (A498 renal): > 50 µM | GI50 (HOP-92 NSCLC): 2990 nM | TGI (HOP-92 NSCLC): 14.3 µM
